Laboratory results published in ChEMBL document CHEMBL1201862, “PubChem BioAssay data set” (2004).
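Cultured in 96-well plates, cells were exposed to test compound for 48 hours across five concentrations. GI50: concentration for 50% inhibition of growth.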 Active and inactive are the calls of the source. Cut-off read from the data, not from the text of the source: active = GI50 up to about 1.1 µM and inactive = higher.

How the values were obtained:
Assay in all cases: inhibition of tumour cell growth, NCI panel, 48 h
A549 = test system: A549
COLO 205 = test system: COLO 205
HL-60 = test system: HL-60
IGROV-1 = test system: IGROV-1
M14 = test system: M14
MOLT-4 = test system: MOLT-4
Malme-3M = test system: Malme-3M
NCI-H23 = test system: NCI-H23
NCI-H522 = test system: NCI-H522
OVCAR-4 = test system: OVCAR-4
OVCAR-5 = test system: OVCAR-5
RXF 393 = test system: RXF 393
SF-295 = test system: SF-295
SK-MEL-5 = test system: SK-MEL-5
SR = test system: SR
SW-620 = test system: SW-620
U-251 = test system: U-251
OVCAR-8 = test system: OVCAR-8
SNB-75 = test system: SNB-75
UACC-62 = test system: UACC-62

Measured: GI50

CCOC(=O)c1c(Cl)nc2ccccc2c1N=[N+]=[N-]
inactive: A549 66.8 µM | COLO 205 21.5 µM | HL-60 67 µM | IGROV-1 22 µM | M14 19.1 µM | MOLT-4 24.2 µM | Malme-3M 34.8 µM | NCI-H23 27.7 µM | NCI-H522 16.7 µM | OVCAR-4 16.9 µM | OVCAR-5 19.3 µM | RXF 393 44.6 µM | SF-295 23.9 µM | SK-MEL-5 44.5 µM | SR 32.7 µM | SW-620 19.5 µM | U-251 24.5 µM

C1=CCN(c2ccccc2)CC1
inactive: A549 > 100 µM | COLO 205 34.5 µM | HL-60 11.9 µM | IGROV-1 29.9 µM | M14 19.9 µM | MOLT-4 5.69 µM | Malme-3M 22.6 µM | NCI-H23 31.5 µM | NCI-H522 16.3 µM | OVCAR-5 > 100 µM | OVCAR-8 27 µM | RXF 393 12.2 µM | SF-295 > 100 µM | SK-MEL-5 62.7 µM | SNB-75 33.1 µM | SR 2.93 µM | SW-620 16.3 µM | U-251 > 100 µM | UACC-62 30.3 µM

CC(Cc1ccccc1)NC1=NCCO1 (configuration not stated)
inactive: A549 38.8 µM | COLO 205 17.5 µM | IGROV-1 36 µM | MOLT-4 47 µM | NCI-H23 24.9 µM | NCI-H522 59.6 µM | OVCAR-4 36.2 µM | OVCAR-5 > 100 µM | OVCAR-8 48.1 µM | RXF 393 52.5 µM | SF-295 > 100 µM | SK-MEL-5 32.3 µM | SNB-75 43.3 µM | SR 42.8 µM | SW-620 34.3 µM | U-251 25.1 µM | UACC-62 52.4 µM

CSc1nc2c(nc(N)n2C2OCC(O)C(O)C2O)c(=O)[nH]1 (configuration not stated)
inactive: A549 > 100 µM | COLO 205 > 100 µM | HL-60 > 100 µM | IGROV-1 > 100 µM | M14 > 100 µM | MOLT-4 > 100 µM | Malme-3M > 100 µM | NCI-H23 > 100 µM | NCI-H522 > 100 µM | OVCAR-4 > 100 µM | OVCAR-8 > 100 µM | RXF 393 > 100 µM | SF-295 > 100 µM | SK-MEL-5 > 100 µM | SNB-75 > 100 µM | SR > 100 µM | SW-620 > 100 µM | U-251 > 100 µM | UACC-62 > 100 µM
